# Assay results published in patent US20040166079A1, “N-Lauroyl amino acid composition for slimming the human body” (priority 2003, published 2004).
# System: normal human dermal fibroblasts
# Assay: Measurement in vitro of the production of hyaluronic acid (STAINS ALL, 630 nm)
# Type: cell-based
# Conditions: incubation concentration 10 ng/ml; 5 days
# Protocol: Glycosaminoglycans (GAGs) are the major proteoglycans of the dermis and play an essential role in maintaining the integrity of the skin. Hyaluronic acid is a major nonsulphated GAG which plays an essential role in the hydration of the skin by its capacity to fix up to 1000 times its weight as water. The effect of the products on the hyaluronic acid level was evaluated by a technique in vitro.
# The hyaluronic acid level is measured in cultures of normal human dermal fibroblasts. The cells are incubated for 5 days in the presence of the products solubilized in the incubation medium. At the end of this incubation, the extracellular media in which the hyaluronic acid is secreted are collected. The hyaluronic acid is stained with a specific stain, STAINS ALL ((1-ethyl-2-[3-(1-ethylnaphtho-[1,2-d]thiazolin-2-ylidene)-2-methylpropenyl]naphtho-[1,2-d]thiazolium bromide, SIGMA), which interacts with it to produce a change in the absorption spectrum between 620 and 660 nm; the measurement is made by spectrophotometry. A hyaluronic acid series is prepared in parallel. […]
# Evaluation of the effects: After 5 days of incubation in the presence of the products, the incubation media are collected and incubated in the presence of STAINS ALL. […] The quantification is made by spectrophotometry at 630 nm. […] The results are expressed as extracellular hyaluronic acid relative to the control.
substance,measurement,value
"EGF: reference in the hyaluronic acid production test, 10 ng/ml",Extracellular hyaluronic acid produced (% relative to the control),133%
